Experimental data from ChEMBL document CHEMBL1135059, “Structure-activity relationships of novel anti-malarial agents. Part 3: N-(4-acylamino-3-benzoylphenyl)-4-propoxycinnamic acid amides” (Bioorg Med Chem Lett, 2002).
pIC50: −log10 of the molar value.

What was measured:
[1] = tested on: Plasmodium falciparum; assay: microbe, parasite or virus in culture
Description: Antimalarial activity against Plasmodium falciparum 3D7 in erythrocytes

[2] = tested on: Plasmodium falciparum; assay: microbe, parasite or virus in culture; remark: listed apart in the source
Description: Antimalarial activity against Plasmodium falciparum Dd2 in erythrocytes

Row | pIC50 [1] | pIC50 [2] | Structure (SMILES)
1 | 5.85 | 5.62 | CCCOc1ccc(/C=C/C(=O)Nc2ccc(NC(=O)Cc3ccccc3C)c(C(=O)c3ccccc3)c2)cc1
2 | 4.70 | 4.64 | CCCOc1ccc(/C=C/C(=O)Nc2ccc(NC(=O)/C=C/c3ccc(OCCC)cc3)c(C(=O)c3ccccc3)c2)cc1
3 | 7.00 | 6.92 | CCCOc1ccc(/C=C/C(=O)Nc2ccc(NC(=O)Cc3ccc(C(F)(F)F)cc3)c(C(=O)c3ccccc3)c2)cc1
4 | 5.70 | 5.55 | CCCOc1ccc(/C=C/C(=O)Nc2ccc(NC(=O)Cc3ccccc3Br)c(C(=O)c3ccccc3)c2)cc1
5 | 5.57 | 5.47 | CCCOc1ccc(/C=C/C(=O)Nc2ccc(NC(=O)c3cccc4ccccc34)c(C(=O)c3ccccc3)c2)cc1
6 | 6.85 | 6.51 | CCCOc1ccc(/C=C/C(=O)Nc2ccc(NC(=O)Cc3ccc(Br)cc3)c(C(=O)c3ccccc3)c2)cc1
7 | 4.72 | 4.62 | CCCOc1ccc(/C=C/C(=O)Nc2ccc(NC(=O)Cc3ccc(-c4ccccc4)cc3)c(C(=O)c3ccccc3)c2)cc1
8 | 6.57 | 6.46 | CCCOc1ccc(/C=C/C(=O)Nc2ccc(NC(=O)Cc3ccc(Cl)cc3)c(C(=O)c3ccccc3)c2)cc1
9 | 5.92 | 5.89 | CCCOc1ccc(/C=C/C(=O)Nc2ccc(NC(=O)Cc3ccc(OC)cc3)c(C(=O)c3ccccc3)c2)cc1
10 | 5.19 | 5.05 | CCCOc1ccc(/C=C/C(=O)Nc2ccc(NC(=O)c3ccccc3)c(C(=O)c3ccccc3)c2)cc1
11 | 5.72 | 5.60 | CCCOc1ccc(/C=C/C(=O)Nc2ccc(NC(=O)Cc3ccccc3)c(C(=O)c3ccccc3)c2)cc1
12 | 7.54 | 7.52 | CCCCN(CCCC)CC(O)c1cc(Cl)cc2c1-c1ccc(Cl)cc1C2=Cc1ccc(Cl)cc1 (centres undefined) [LUMEFANTRINE]

Row | Structure (SMILES) | pIC50 [1] | pIC50 [2]
13 | CCCOc1ccc(/C=C/C(=O)Nc2ccc(NC(=O)Cc3ccc(C)cc3)c(C(=O)c3ccccc3)c2)cc1 | 6.60 | 6.47
14 | CC1(C)N=C(N)N=C(N)N1c1ccc(Cl)cc1 [CYCLOGUANIL] | 8.12 | 
15 | CCc1nc(N)nc(N)c1-c1ccc(Cl)cc1 [PYRIMETHAMINE] | 8.52 | 
16 | C=C[C@H]1CN2CC[C@H]1C[C@H]2[C@H](O)c1ccnc2ccc(OC)cc12 [QUININE] | 7.02 | 
